The record followed here is patent US9902716B2, “Fluorinated benzofuranyl-pyrimidine derivatives containing a sulfone group” (Bayer Pharma Aktiengesellschaft, priority 2014, dated 2018).

For orientation: IC50 means the concentration needed to halve the response being measured.

One assay has as its target T1, CDK2/CycE (Homo sapiens, UniProt P24941).
T1 construct: GST; purchased ProQinase GmbH (Freiburg, Germany); host or cells: insect cells (Sf9)
Nature of the assay: CDK2/CycE high ATP kinase assay (Method 2b, TR-FRET). As to conditions: 2 mM ATP. The class given is biochemical. On the procedure: 2b. CDK2/CycE High ATP Kinase Assay:
CDK2/CycE-inhibitory activity of compounds of the present invention at 2 mM adenosine-tri-phosphate (ATP) was quantified employing the CDK2/CycE TR-FRET (TR-FRET=Time Resolved Fluorescence Energy Transfer) assay as described in the following paragraphs.
Recombinant fusion proteins of GST and human CDK2 and of GST and human CycE, expressed in insect cells (Sf9) and purified by Glutathion-Sepharose affinity chromatography, were purchase from ProQinase GmbH (Freiburg, Germany). As substrate for the kinase reaction biotinylated peptide biotin-Ttds-YISPLKSPYKISEG (C-terminus in amid form) was used which can be purchased e.g. form the company JERINI peptide technologies (Berlin, Germany).
For the assay 50 nl of a 100 fold concentrated solution of the test compound in DMSO was pipetted into a black low volume 384 well microtiter plate (Greiner Bio-One, Frickenhausen, Germany), 2 μl of a solution of CDK2/CycE in aqueous assay buffer [50 mM Tris/HCl pH 8.0, 10 mM MgCl2, 1.0 mM dithiothreitol, 0.1 mM sodium ortho-vanadate, 0.01% (v/v) Nonidet-P40 (Sigma)] were added and the mixture was incubated for 15 min at 22° C. to allow pre-binding of the test compounds to the enzyme before the start of the kinase reaction. Then the kinase reaction was started by the addition of 3 μl of a solution ATP (3.33 mM=> final conc. in the 5 μl assay volume is 2 mM) and substrate (1.25 μM=> final conc. in the 5 μl assay volume is 0.75 μM) in assay buffer and the resulting mixture was incubated for a reaction time of 25 min at 22° C. […]
The resulting mixture was incubated 1 h at 22° C. to allow the formation of complex between the phosphorylated biotinylated peptide and the detection reagents. Subsequently the amount of phosphorylated substrate was evaluated by measurement of the resonance energy transfer from the Euchelate to the streptavidine-XL. Therefore, the fluorescence emissions at 620 nm and 665 nm after excitation at 350 nm wer measured in a TR-FRET reader, e.g. a Rubystar (BMG Labtechnologies, Offenburg, Germany) or a Viewlux (Perkin-Elmer). […]
For orientation: In TR-FRET formats the signal depends on donor and acceptor labels being close together.

A further assay has as its target T2, CDK9/CycT1 (Homo sapiens, UniProt P50750).
T2 construct: Recombinant full-length His-tagged human CDK9 and CycT1; His; purchased Invitrogen PV4131; host or cells: insect cells
Nature of the assay: CDK9/CycT1 high ATP kinase assay (Method 1b, TR-FRET). The settings on record: 2 mM ATP; for IC50: Method 1b; for Selectivity high ATP CDK9 over high ATP CDK2: IC50 (high ATP CDK2)/IC50 (high ATP CDK9): Methods 1b and 2b. The class given is biochemical. The procedure: 1b. CDK9/CycT1 High ATP Kinase Assay
CDK9/CycT1-inhibitory activity of compounds of the present invention at a high ATP concentration after preincubation of enzyme and test compounds was quantified employing the CDK9/CycT1 TR-FRET assay as described in the following paragraphs.
Recombinant full-length His-tagged human CDK9 and CycT1, expressed in insect cells and purified by Ni-NTA affinity chromatography, were purchase from Invitrogen (Cat. No PV4131). As substrate for the kinase reaction biotinylated peptide biotin-Ttds-YISPLKSPYKISEG (C-terminus in amid form) was used which can be purchased e.g. form the company JERINI peptide technologies (Berlin, Germany). For the assay 50 nl of a 100 fold concentrated solution of the test compound in DMSO was pipetted into a black low volume 384 well microtiter plate (Greiner Bio-One, Frickenhausen, Germany), 2 μl of a solution of CDK9/CycT1 in aqueous assay buffer [50 mM Tris/HCl pH 8.0, 10 mM MgCl2, 1.0 mM dithiothreitol, 0.1 mM sodium ortho-vanadate, 0.01% (v/v) Nonidet-P40 (Sigma)] were added and the mixture was incubated for 15 min at 22° C. to allow pre-binding of the test compounds to the enzyme before the start of the kinase reaction. Then the kinase reaction was started by the addition of 3 μl of a solution of adenosine-tri-phosphate (ATP, 3.3 mM=> final conc. in the 5 μl assay volume is 2 mM) and substrate (1.67 μM=> final conc. in the 5 μl assay volume is 1 μM) in assay buffer and the resulting mixture was incubated for a reaction time of 25 min at 22° C. The concentration of CDK9/CycT1 was adjusted depending of the activity of the enzyme lot and was chosen appropriate to have the assay in the linear range, typical concentrations were in the range of 0.5 μg/mL. The reaction was stopped by the addition of 5 μl of a solution of TR-FRET detection reagents (0.2 μM streptavidine-XL665 [Cisbio Bioassays, Codolet, France] and 1 nM anti-RB(pSer807/pSer811)-antibody from BD Pharmingen [#558389] and 1.2 nM LANCE EU-W1024 labeled anti-mouse IgG antibody [Perkin-Elmer, product no. AD0077]) in an aqueous EDTA-solution (100 mM EDTA, 0.2% (w/v) bovine serum albumin in 100 mM HEPES/NaOH pH 7.0).
The resulting mixture was incubated 1 h at 22° C. to allow the formation of complex between the phosphorylated biotinylated peptide and the detection reagents. Subsequently the amount of phosphorylated substrate was evaluated by measurement of the resonance energy transfer from the Euchelate to the streptavidine-XL. Therefore, the fluorescence emissions at 620 nm and 665 nm after excitation at 350 nm was measured in a HTRF reader, e.g. a Rubystar (BMG Labtechnologies, Offenburg, Germany) or a Viewlux (Perkin-Elmer). The ratio of the emissions at 665 nm and at […] was taken as the measure for the amount of phosphorylated substrate. The data were normalised (enzyme reaction without inhibitor=0% inhibition, all other assay components but no enzyme=100% inhibition).

T2 sequence (P50750 whole entry): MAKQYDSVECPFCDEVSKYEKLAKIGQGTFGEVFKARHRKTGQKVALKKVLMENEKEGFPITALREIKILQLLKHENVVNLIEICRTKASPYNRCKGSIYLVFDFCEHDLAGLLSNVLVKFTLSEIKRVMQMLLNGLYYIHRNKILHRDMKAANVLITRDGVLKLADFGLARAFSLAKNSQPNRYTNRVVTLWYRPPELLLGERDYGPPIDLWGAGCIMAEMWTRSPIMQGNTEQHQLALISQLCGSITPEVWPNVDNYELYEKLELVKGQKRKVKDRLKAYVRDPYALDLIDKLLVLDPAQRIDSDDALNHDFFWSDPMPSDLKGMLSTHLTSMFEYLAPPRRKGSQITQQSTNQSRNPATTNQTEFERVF
T2 sequence (O60563 whole entry partner): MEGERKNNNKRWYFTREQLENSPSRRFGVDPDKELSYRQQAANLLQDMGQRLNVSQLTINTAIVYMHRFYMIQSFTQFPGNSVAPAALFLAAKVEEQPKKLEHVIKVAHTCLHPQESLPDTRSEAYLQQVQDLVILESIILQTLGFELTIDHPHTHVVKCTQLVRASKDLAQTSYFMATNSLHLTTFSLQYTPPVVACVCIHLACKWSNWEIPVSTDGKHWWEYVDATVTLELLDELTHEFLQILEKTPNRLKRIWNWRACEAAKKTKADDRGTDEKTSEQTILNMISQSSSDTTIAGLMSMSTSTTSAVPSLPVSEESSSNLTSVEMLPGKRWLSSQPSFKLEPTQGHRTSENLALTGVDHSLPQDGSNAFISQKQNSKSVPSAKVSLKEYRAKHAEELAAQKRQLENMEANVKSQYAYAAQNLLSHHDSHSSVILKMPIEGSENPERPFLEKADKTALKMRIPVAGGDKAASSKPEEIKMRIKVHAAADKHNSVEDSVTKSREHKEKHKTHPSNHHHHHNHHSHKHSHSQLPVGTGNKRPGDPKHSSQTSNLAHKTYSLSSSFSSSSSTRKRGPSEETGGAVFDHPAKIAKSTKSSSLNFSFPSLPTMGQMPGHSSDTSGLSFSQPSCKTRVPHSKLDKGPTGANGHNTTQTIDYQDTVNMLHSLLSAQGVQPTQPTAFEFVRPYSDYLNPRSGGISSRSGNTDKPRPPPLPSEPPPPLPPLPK

`Cc1cc(CS(C)(=O)=O)cc(Nc2ncc(F)c(-c3ccc(F)c4ccoc34)n2)c1` [Example 4, 5-Fluoro-4-(4-fluoro-1-benzofuran-7-yl)-N-{3-methyl-5-[(methylsulfonyl)methyl]-phenyl}pyrimidin-2-amine]: inhibition against CDK2/CycE was half-maximal at 8560 nM (IC50). In addition, at CDK9/CycT1, inhibition was half-maximal at 1 nM (IC50) and the “Selectivity high ATP CDK9 over high ATP CDK2: IC50 (high ATP CDK2)/IC50 (high ATP CDK9)” value (“Selectivity high ATP CDK9” below) was 8560.
Take `CS(=O)(=O)Cc1cccc(Nc2ncc(F)c(-c3ccc(F)c4ccoc34)n2)c1` [Example 1, 5-Fluoro-4-(4-fluoro-1-benzofuran-7-yl)-N-{3-[(methylsulfonyl)methyl]-phenyl}pyrimidin-2-amine]: on CDK2/CycE, the half-inhibitory concentration (IC50) was 1320 nM. In addition, at CDK9/CycT1, the IC50 worked out at 9 nM and the “Selectivity high ATP CDK9” value is listed as 147.
For the compound `CCS(=O)(=O)Cc1cccc(Nc2ncc(F)c(-c3ccc(F)c4ccoc34)n2)c1` [Example 2, N-{3-[(Ethylsulfonyl)methyl]phenyl}-5-fluoro-4-(4-fluoro-1-benzofuran-7-yl)pyrimidin-2-amine], the IC50 against CDK2/CycE is 917 nM. Further, on CDK9/CycT1, the IC50 was 9 nM and the “Selectivity high ATP CDK9” value was 102.
Regarding `CS(=O)(=O)Cc1cc(F)cc(Nc2ncc(F)c(-c3ccc(F)c4ccoc34)n2)c1` [Example 3], on CDK9/CycT1, the midpoint of inhibition, the IC50, lay at 2 nM. This counts as single-digit nanomolar.
